Earlier results as cited in patent US6927272B2, “Electronic component-use material and electronic component using it” (Matsushita Electric Industrial Co., Ltd., priority 2001, dated 2005).
Like-named read-outs stand apart in the source and are kept apart here.

Settings: room temperature (20-30° C.)

Row | SMILES | Vapor Pressure | Vapor Pressure (cis-form) | Vapor Pressure (trans-form)
1 | CC(C)[C@H](C(=O)OC(C#N)c1cccc(Oc2ccccc2)c1)c1ccc(OC(F)F)cc1 (stereo partly drawn) [flucythrinate] | 1,200 nPa | – | –
2 | CC1(C)C(/C=C(\Cl)C(F)(F)F)C1C(=O)OC(C#N)c1cccc(Oc2ccccc2)c1 (stereo not drawn) [λ-cyhalothrin] | 200 nPa | – | –
3 | CC1(C)C(C=C(Cl)Cl)C1C(=O)OCc1cccc(Oc2ccccc2)c1 (stereo not drawn) [permethrin] | 45,000 nPa | – | –
4 | Cc1c(F)c(F)c(COC(=O)[C@@H]2[C@H](/C=C(\Cl)C(F)(F)F)C2(C)C)c(F)c1F (racemic) [tefluthrin] | 80,000,000 nPa | – | –
5 | CC1(C)[C@H](C(=O)O[C@H](C#N)c2cccc(Oc3ccccc3)c2)[C@@H]1C(Br)C(Br)(Br)Br (stereo partly drawn) [tralomethrin] | 0.017 nPa | – | –
6 | CCOc1ccc([Si](C)(C)CCCc2ccc(F)c(Oc3ccccc3)c2)cc1 [silafluofen] | 731,500 nPa | – | –
7 | CC1(C)[C@H](C(=O)O[C@H](C#N)c2cccc(Oc3ccccc3)c2)[C@@H]1C=C(Br)Br [deltamethrin] | 2,000 nPa | – | –
8 | CC1(C)C(C=C(Cl)Cl)C1C(=O)OC(C#N)c1cccc(Oc2ccccc2)c1 (stereo not drawn) [cypermethrin] | 230 nPa | – | –
9 | Cc1c(COC(=O)[C@@H]2[C@H](/C=C(\Cl)C(F)(F)F)C2(C)C)cccc1-c1ccccc1 (racemic) [bifenthrin] | 24,000 nPa | – | –
10 | CC1(C)C(C=C(Cl)Cl)C1C(=O)OC(C#N)c1ccc(F)c(Oc2ccccc2)c1 (stereo not drawn) [β-cyfluthrin] | – | cis-form 10/ nPa | 90 nPa
11 | CC1(C)[C@H](C(=O)O[C@H](C#N)c2cccc(Oc3ccccc3)c2)[C@@H]1/C=C\C(=O)OC(C(F)(F)F)C(F)(F)F [acrinathrin] | 390 nPa | – | –
12 | CC(C)=CC1C(C(=O)OC(C#N)c2cccc(Oc3ccccc3)c2)C1(C)C (stereo not drawn) [cyphenothrin] | 400,000 nPa | – | –
13 | CC(C)[C@@H](Nc1ccc(C(F)(F)F)cc1Cl)C(=O)OC(C#N)c1cccc(Oc2ccccc2)c1 (stereo partly drawn) [τ-fulvalinate] | 13,000 nPa | – | –
14 | CC(C)=CC1C(C(=O)OCc2cccc(Oc3ccccc3)c2)C1(C)C (stereo not drawn) [phenothrin] | 160,000 nPa | – | –
15 | CC(C)C(C(=O)OC(C#N)c1cccc(Oc2ccccc2)c1)c1ccc(Cl)cc1 (stereo not drawn) [fenvalerate] | 37,000 nPa | – | –
16 | CC(C)=CC1C(C(=O)OCc2coc(Cc3ccccc3)c2)C1(C)C (stereo not drawn) [resmethrin] | 1,500 nPa | – | –
17 | CC(C)=CC1C(C(=O)OCN2C(=O)C3=C(CCCC3)C2=O)C1(C)C (stereo not drawn) [d-tetramethrin] | 320,000 nPa | – | –
